Reference: patent US9452980B2, “Substituted benzamides” (Hoffmann-La Roche Inc., priority 2009, dated 2016)
Where a name gives a salt, the structure may show the parent alone. Read-outs that look alike come from different tables or passages of the source.

Tests used:
[1] = target: mouse TAAR1 (Mus musculus (Mouse), UniProt Q923Y8); test: Radioligand binding assay on mouse TAAR1; settings: read-out: Ki (μM) mouse
Protocol: (§1) For the construction of expression plasmids the coding sequences of human, rat and mouse TAAR1 were amplified from genomic DNA essentially as described by Lindemann et al.. The Expand High Fidelity PCR System (Roche Diagnostics) was used with 1.5 mM Mg^2+ and purified PCR products were cloned into pCR2.1-TOPO cloning vector (Invitrogen) following the instructions of the manufacturer. PCR products were subcloned into the pIRESneo2 vector (BD Clontech, Palo Alto, Calif.), and expression vectors were sequence verified before introduction in cell lines.
(§2) HEK293 cells (ATCC #CRL-1573) were cultured essentially as described by Lindemann et al. (2005). For the generation of stably transfected cell lines HEK293 cells were transfected with the pIRESneo2 expression plasmids containing the TAAR coding sequences (described above) with Lipofectamine 2000 (Invitrogen) according to the instructions of the manufacturer, and 24 hrs post transfection the culture medium was supplemented with 1 mg/ml G418 (Sigma, Buchs, Switzerland). After a culture period of about 10 d clones were isolated, expanded and tested for responsiveness to trace amines (all compounds purchased from Sigma) with the cAMP Biotrak Enzyme immunoassay (EIA) System (Amersham) following the non-acetylation EIA procedure provided by the manufacturer.
Radioligand Binding Assay on Mouse TAAR1
(§3) Membrane Preparation and Radioligand Binding.
(§4) HEK-293 cells stably expressing mouse TAAR1 were maintained at 37° C. and 5% CO2 in DMEM high glucose medium, containing fetal calf serum (10%, heat inactivated for 30 min at 56° C.), penicillin/streptomycin (1%), and 375 μg/ml geneticin (Gibco). Cells were released from culture flasks using trypsin/EDTA, harvested, washed twice with ice-cold PBS (without Ca^2+ and Mg^2+), pelleted at 1,000 rpm for 5 min at 4° C., frozen and stored at −80° C. Frozen pellets were suspended in 20 ml HEPES-NaOH (20 mM, pH 7.4) containing 10 mM EDTA and homogenized with a Polytron (PT 6000, Kinematica) at 14,000 rpm for 20 s. The homogenate was centrifuged at 48,000×g for 30 min at 4° C. Subsequently, the supernatant was removed and discarded, and the pellet resuspended in 20 ml HEPES-NaOH (20 mM, pH 7.4) containing 0.1 mM EDTA using the Polytron (20 s at 14,000 rpm). This procedure was repeated and the final pellet resuspended in HEPES-NaOH containing 0.1 mM EDTA and homogenized using the Polytron. Typically, aliquots of 2 ml membrane portions were stored at −80° C. With each new membrane batch the dissociation constant (Kd) was determined via a saturation curve. […] Nonspecific binding was defined as the amount of ^3[H]—(S)-4-[(ethyl-phenyl-amino)-methyl]-4,5-dihydro-oxazol-2-ylamine bound in the presence of 10 μM unlabeled ligand. All compounds were tested at a broad range of concentrations (10 pM to 10 μM) in duplicates. […] The 96 deep well plates were incubated for 1 hr at 4° C. Incubations were terminated by rapid filtration through Unifilter-96 plates (Packard Instrument Company) and glass filters GF/C (Perkin Elmer) presoaked for 1 hr in polyethylenimine (0.3%) and washed 3 times with 1 ml of cold binding buffer. After addition of 45 μl of Microscint 40 (PerkinElmer) the Unifilter-96 plate was sealed and after 1 hr the ratioactivity counted using a TopCount Microplate Scintillation Counter (Packard Instrument Company).

[2] = target: rat TAAR1 (Rattus norvegicus (Rat), UniProt Q923Y9); test: Radioligand binding assay on rat TAAR1; settings: read-out: Ki (μM) rat
Protocol: as §1, §2
Radioligand Binding Assay on Rat TAAR1
as §3
as §4, with “rat” for “mouse”

[3] = mouse TAAR1, HEK-293 membranes, first value of cell mouse/rat
[4] = rat TAAR1, HEK-293 membranes, second value of cell mouse/rat

Sequence of rat TAAR1 (Q923Y9 whole entry): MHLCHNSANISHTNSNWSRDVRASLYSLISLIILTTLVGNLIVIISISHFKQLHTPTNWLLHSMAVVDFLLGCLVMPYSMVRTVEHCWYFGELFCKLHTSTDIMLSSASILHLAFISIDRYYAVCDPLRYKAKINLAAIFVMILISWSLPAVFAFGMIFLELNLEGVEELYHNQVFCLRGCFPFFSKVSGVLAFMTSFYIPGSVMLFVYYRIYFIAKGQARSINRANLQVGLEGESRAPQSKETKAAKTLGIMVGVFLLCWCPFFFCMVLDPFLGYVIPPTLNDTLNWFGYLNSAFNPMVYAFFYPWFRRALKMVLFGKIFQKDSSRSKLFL
Sequence of mouse TAAR1 (Q923Y8 whole entry): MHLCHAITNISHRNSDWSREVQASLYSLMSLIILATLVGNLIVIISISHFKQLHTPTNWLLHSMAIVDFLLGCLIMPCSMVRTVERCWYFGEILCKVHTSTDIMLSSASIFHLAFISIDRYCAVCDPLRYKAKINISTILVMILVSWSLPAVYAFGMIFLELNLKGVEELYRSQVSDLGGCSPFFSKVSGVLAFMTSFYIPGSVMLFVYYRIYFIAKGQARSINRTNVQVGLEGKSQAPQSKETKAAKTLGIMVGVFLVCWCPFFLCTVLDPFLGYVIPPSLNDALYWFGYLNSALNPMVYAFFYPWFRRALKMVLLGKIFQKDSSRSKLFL

Ki [1, 3] [µM] | Ki [2, 4] [µM] | SMILES | Ki [1] [µM] | Ki [2] [µM]
 |  | Cc1cc(C(=O)Nc2ccc([C@@H]3CCCNC3)cc2)ccc1Cl [Example 226, (S)-4-Chloro-3-methyl-N-(4-(piperidin-3-yl)phenyl)benzamide hydrochloride] | 0.0555 | 0.001
0.15 | 0.0317 | O=C(Nc1ccc(C2CNCCO2)cc1)c1ccc(OC2CCOCC2)nc1 (racemic) [Example 232, (RS)—N-(4-(Morpholin-2-yl)phenyl)-6-(tetrahydro-2H-pyran-4-yloxy)nicotinamide hydrochloride] |  | 
0.002 | 0.012 | O=C(Nc1ccc(C2CCCNC2)cc1)Nc1ccc(Cl)cn1 (racemic) [Example 83, (RS)-1-(5-Chloro-pyridin-2-yl)-3-(4-piperidin-3-yl-phenyl)-urea hydrochloride] |  | 
0.0172 | 0.0069 | O=C(Nc1ccc(C2CNCCO2)cc1)c1ccnc(C(F)(F)F)c1 (racemic) [Example 280, (RS)—N-(4-(Morpholin-2-yl)phenyl)-2-(trifluoromethyl)isonicotinamide hydrochloride] |  | 
0.0019 | 0.0048 | O=C(Nc1ccc(C2CCNC2)cc1)OCc1ccc(F)cc1 (racemic) [Example 47, (RS)-(4-Pyrrolidin-3-yl-phenyl)-carbamic acid 4-fluoro-benzyl ester hydrochloride] |  | 
0.0326 | 0.0014 | CCOc1ccc(C(=O)Nc2ccc(CCC3CCCN3)cc2)cc1 (racemic) [Example 158, (RS)-4-Ethoxy-N-[4-(2-pyrrolidin-2-yl-ethyl)-phenyl]-benzamide hydrochloride] |  | 
0.136 | 0.296 | O=C(Nc1ccc(C2CCNC2)cc1)c1nc2ccccc2[nH]1 (racemic) [Example 76, (RS)-1H-Benzoimidazole-2-carboxylic acid (4-pyrrolidin-3-yl-phenyl)-amide hydrochloride] |  | 
0.245 | 0.0358 | O=C(Nc1ccc(C2CCNC2)nc1)c1ccc(Cl)cc1 (racemic) [Example 140, (RS)-4-Chloro-N-(6-pyrrolidin-3-yl-pyridin-3-yl)-benzamide] |  | 
0.0645 | 0.0847 | Cn1cc(-c2nc(C(=O)Nc3ccc(C4CNCCO4)cc3)cs2)cn1 (racemic) [Example 296, (RS)-2-(1-Methyl-1H-pyrazol-4-yl)-N-(4-(morpholin-2-yl)phenyl)thiazole-4-carboxamide hydrochloride] |  | 
6.38 | 0.63 | O=C(Nc1ccc(C2CCCCN2)cc1)c1ccc(Cl)cc1 (racemic) [Example 159, (RS)-4-Chloro-N-(4-piperidin-2-yl-phenyl)-benzamide hydrochloride] |  | 
0.0007 | 0.0022 | O=C(Nc1ccc(C2CCCNC2)cc1)c1ccc(Cl)cc1 (racemic) [Example 58, (RS)-4-Chloro-N-(4-piperidin-3-yl-phenyl)-benzamide hydrochloride] |  | 
0.0608 | 0.324 | O=C(Nc1ccc(C2CNCCO2)cc1)c1csc(-c2ncccn2)n1 (racemic) [Example 290, (RS)—N-(4-(Morpholin-2-yl)phenyl)-2-(pyrimidin-2-yl)thiazole-4-carboxamide hydrochloride] |  | 
0.0051 | 0.017 | O=C(Nc1ccc(C2CCNC2)cc1)c1ccc(Br)cn1 (racemic) [Example 87, (RS)-5-Bromo-pyridine-2-carboxylic acid (4-pyrrolidin-3-yl-phenyl)-amide hydrochloride] |  | 
0.547 | 0.0154 | O=C(NCc1ccc([C@@H]2CNCCO2)cc1)c1cccc(Cl)c1 [Example 313, (R)-3-Chloro-N-(4-(morpholin-2-yl)benzyl)benzamide hydrochloride] |  | 
0.0028 | 0.0036 | O=C(Nc1ccc(C2CCNC2)cc1)Nc1ccc(Cl)cc1Cl (racemic) [Example 7, (RS)-1-(2,4-Dichloro-phenyl)-3-(4-pyrrolidin-3-yl-phenyl)-urea hydrochloride] |  | 
0.235 | 1.2 | Cc1cc(C(=O)Nc2ccc(C3CNCCO3)cc2)cc(C)n1 (racemic) [Example 295, (RS)-2,6-Dimethyl-N-(4-(morpholin-2-yl)phenyl)isonicotinamide dihydrochloride] |  | 

SMILES | Ki [1, 3] [µM] | Ki [2, 4] [µM] | Ki [1] [µM] | Ki [2] [µM]
CCOc1ccc(C(=O)Nc2ccc([C@@H]3CNCCO3)cc2)cc1 [Example 275, (R)-4-Ethoxy-N-(4-(morpholin-2-yl)phenyl)benzamide hydrochloride] | 0.0082 |  |  | 0.0036
O=C(Nc1ccc(C2CNCCO2)cc1)c1ccc(Cl)cc1F (racemic) [Example 146, (RS)-4-Chloro-2-fluoro-N-(4-morpholin-2-yl-phenyl)-benzamide hydrochloride] |  | 0.001 | 0.0268 | 
Cc1cccc(C(=O)Nc2ccc([C@@H]3CCCNC3)cc2)c1 [Example 253, (S)-3-Methyl-N-(4-(piperidin-3-yl)phenyl)benzamide] |  | 0.0035 | 0.36 | 
O=C(Nc1ccc(C2CCCNC2)cc1)c1ccc(Cl)cn1 (racemic) [Example 78, (RS)-5-Chloro-pyridine-2-carboxylic acid (4-piperidin-3-yl-phenyl)-amide hydrochloride] | 0.0067 | 0.0466 |  | 
CCCc1ccc(C(=O)Nc2ccc(C3CCCNC3)cc2)cc1 (racemic) [Example 137, (RS)—N-(4-Piperidin-3-yl-phenyl)-4-propyl-benzamide hydrochloride] | 0.0062 | 0.0015 |  | 
CN1CCN(c2ccc(NC(=O)Nc3ccc(Cl)c(Cl)c3)cc2)CC1 [Example 2, 1-(3,4-Dichloro-phenyl)-3-[4-(4-methyl-piperazin-1-yl)-phenyl]-urea] |  | 0.001 | 0.0006 | 
O=C(Nc1ccc(CCC2CCCN2)cc1)c1ccc(F)cn1 (racemic) [Example 166, (RS)-5-Fluoro-N-(4-(2-(pyrrolidin-2-yl)ethyl)phenyl)picolinamide hydrochloride] | 0.394 | 0.0212 |  | 
O=C(Nc1ccc([C@H]2CCCNC2)cc1)c1ccc(Cl)nc1 [Example 161, (R)-6-Chloro-N-(4-(piperidin-3-yl)phenyl)nicotinamide hydrochloride] |  | 0.0101 | 0.0403 | 
O=C(Nc1ccc([C@H]2CCCNC2)cc1)c1ccc(Cl)c(Cl)c1 [Example 150, 3,4-Dichloro-N—((R)-4-piperidin-3-yl-phenyl)-benzamide hydrochloride] |  | 0.0004 | 0.002 | 
